Our source for the IC50 values is patent US9115089B2, “Methyl/fluoro-pyridinyl-methoxy substituted pyridinone-pyridinyl compounds and fluoro-pyrimidinyl-methoxy substituted pyridinone-pyridinyl compounds” (CONFLUENCE LIFE SCIENCES, INC., priority 2013, dated 2015).

For orientation: IC50 means the concentration needed to halve the response being measured.

What all share (assay type): cell-based
Assay [1] concerns TNFα production in U937 cells. The assay can be described thus: LPS-induced TNFα production in differentiated U937 cells. Particulars: Homo sapiens, U-937, LPS 0.1 μg/mL for 4 hours. How it is done:
Therefore, inhibition of the p38 MAPK pathway will lower the inflammatory response by decreasing biosynthesis of proinflammatory cytokines. […] Evaluation of the potency and efficacy of p38 inhibitors to block cytokine production is carried out using the human U937 cell line. The U937 human pre-monocytic cell line is obtained from the American Type Culture Collection (Rockville, Md.). These cells are differentiated to a monocytic/macrophage phenotype as described by Burnette (Burnette et al, (2009). SD0006: a potent, selective and orally available inhibitor of p38 kinase, Pharmacology 84(1):42-60). Differentiated U937 cells are seeded into 96-well tissue culture plates (200,000 cells/well) in complete media. After 24 hours, the cells are pretreated for 60 minutes in the presence or absence of compound and then stimulated with LPS (0.1 μg/mL) for 4 hours. Culture media are then collected for determination of TNFα, IL-6 or IL-1β levels by ELISA. Cytokine concentrations are extrapolated from recombinant protein standard curves using a four-parameter logistic model and solving for IC50 after iterating to the best least-squares fit.

Assay [2] concerns IL-6 production in A549 cells. The assay is described as follows: IL-1-induced IL-6 production in A549 cells. Particulars: Homo sapiens, 3 hours stimulation. How it is done: Adherent A549 cells (approximately 5 million per T75 cm^2 tissue culture flask) are grown in F-12K media containing 10% fetal bovine serum (FBS) plus antibiotics. The cells are trypsinized, washed and resuspended at 0.3 million per milliliter. A549 cells are then distributed into each well of a 96-well flat bottom tissue culture plate ([…]) and the 30,000 cells/well are allowed to recover, incubated, overnight. On the day of the assay fresh media ([…]) is added to the plates followed by the addition of compound ([…]/well, concentration response) for 1 hour. […] After 3 hours, cultured media ([…]/well) is transferred from the assay plate to a Meso Scale custom coated detection plate for determination of IL-6 levels. […] Read buffer ([…]/well, MSD 4× read buffer diluted 4-fold with dH2O) is added and the plate is read using the Meso Scale Sector Imager 6000. Upon electrical stimulation of the detection plate, co-reactants in the read buffer enhance an electrochemical reaction resulting in the release of energy in the form of light. This signal is captured by an internal CCD camera and quantitated. Viability of A549 cells is determined using an MTT assay. […] Isopropanol ([…]) is added to solubilize the resulting formazan crystals and the plate is read at 570 nm/650 nm using a Molecular Devices SpectraMax spectrophotometer.

In assay [3] the test system is TNFα production in human whole blood. The assay can be described thus: Endotoxin-induced TNFα production from human whole blood. The conditions noted are these: LPS 100 ng/ml, 3 hours, read-out: HWB TNFα IC50. How it is done:
(§1) Human whole blood (HWB; 25-45 ml) was collected from an NSAID-free donor into vacutainer collection tubes containing sodium heparin (10 ml, 158 USP units), pooled and rocked gently before being distributed into each well of a 96-well round bottom tissue culture plate ([…]). Compounds ([…]/well, concentration response) are added and mixed gently for 15-20 seconds using a disposable 96 polypropylene pin tool before the plates are incubated at 37° C./5% CO2 for 1 hour. The HWB is stimulated with LPS (100 ng/ml) in a final assay volume of […]. After 3 hours, the plates are spun at 240×g for 5 minutes to pellet the red cells. The plasma is carefully transferred to another 96-well round bottom plate and diluted 2-fold with assay media (DMEM containing 10% fetal bovine serum (FBS) plus antibiotics). Finally, the diluted plasma ([…]/well) is transferred to Meso Scale detection plates for determination of IL-1, IL-6 or TNFα.

Assay [4] concerns IL-1β production in human whole blood. The assay is described as follows: Endotoxin-induced IL-1β production from human whole blood. The conditions noted are these: LPS 100 ng/ml, 3 hours, read-out: HWB IL-1β IC50. How it is done: as §1
For assay [5], the system named is IL-6 production in human whole blood. The assay can be described thus: Endotoxin-induced IL-6 production from human whole blood. Particulars: LPS 100 ng/ml, 3 hours, read-out: HWB IL-6 IC50. Here is the method: as §1

Turning to `Cc1cnc(-c2ccnc(C(C)(C)O)n2)cc1-n1c(C)cc(OCc2ncc(F)cc2F)c(Cl)c1=O` [Compound 49, 3-chloro-4-((3,5-difluoropyridin-2-yl)methoxy)-2′-(2-(2-hydroxypropan-2-yl)pyrimidin-4-yl)-5′,6-dimethyl-2H-[1,4′-bipyridin]-2-one], the half-inhibitory concentration (IC50) in assay [1] is 1.6 nM; in assay [2] it was 1.8 nM; in assay [3] it was 13 nM; in assay [4], 6 nM; in assay [5] it was 35 nM.
